In assay [1] the test system is human neonatal dermal fibroblasts (NDF). Briefly: Resazurin viability assay, senescent vs proliferating/quiescent human neonatal dermal fibroblasts. It counts as cell-based. Particulars: Homo sapiens, Fibroblast, 72 h, 72 hour exposure, resazurin. The method, then: FIG. 2. Compound A1.1 selectively kills senescent human neonatal dermal fibroblasts (NDF) cells in a dose- and time-dependent manner. (FIG. 2A) Normal proliferating and quiescent NDF cells, and the cells made senescent via exposure to genotoxic agents (doxorubicin, bleomycin and gamma-irradiation) were incubated with increasing concentrations of A1.1. At 72 hours post-treatment cell viability was measured via resazurin viability assay. (FIG. 2B) Compound A1.1 selectively kills senescent NDF cells in time-dependent manner discriminating between acute genotoxic stress and senescence. Acutely damaged NDF cells were irradiated with 4 Gy gamma-irradiation 24 hours before A1.1 treatment. Senescent NDF cells were treated with bleomycin or irradiated with 15 Gy and incubated for 14 days to induce senescence before treatment with A1.1. Proliferating acutely damaged and senescent NDF cell were treated with 1.875-30 μM A1.1 and viable cells were measured at 72 hours after treatment. Average and standard deviation are shown.
Normal proliferating and quiescent NDF cells, and the cells made senescent via exposure to genotoxic agents (doxorubicin, bleomycin and gamma-irradiation) were incubated with increasing concentrations of A1.1. At 72 hours post-treatment cell viability was measured via resazurin viability assay.
A1.1 selectively kills senescent human neonatal dermal fibroblasts (NDF) cells in time-dependent manner discriminating between acute genotoxic stress and senescence ([…]). Acutely damaged NDF cells were irradiated with 4 Gy gamma-irradiation 24 hours before A1.1 treatment. Senescent NDF cells were treated with bleomycin or irradiated with 15 Gy and incubated for 14 days to induce senescence before treatment with A1.1.
(§1) Cytotoxicity of A1.1 analogs against bleomycin-induced senescent human NDFs and rat dermal fibroblasts (RDFs). Activity of analogs was assessed from dose-response curves against irradiation- or bleomycin-induced senescent and proliferating cells to calculate IC50s (uM). The fold difference of proliferating versus senescent cell IC50s was used to assess the level of specific anti-senescent activity of the compounds.
(§2) For generation senescent human neonatal dermal fibroblasts (NDFs) and adult rat dermal fibroblasts (RDFs), cells are treated at ˜10 ug/ml bleomycin for 3 days (for bleomycin-induced senescence) or irradiated once at 20 Gy using a gamma irradiator (Cs source), followed by at least 7 day recovery in fresh medium for induction of senescence. Senescent and non-senescent (proliferating) cells for each cell line are plated into 384-w plate, followed by 72 hour exposure to a dose titration of compounds. Viability measurements are estimated using the resazurin viability assay. Using GraphPad Prism 5, the IC50 values are calculated from the non-linear regression of log-transformed compound concentrations versus dose-response normalized to background and non-treated controls.
On the technique in general: The colour change of resazurin is a common sign of viable cells or microbes.

The test system of assay [2] is RWPE-1 normal prostate epithelial cells. The experiment in a line: dnPTEN-induced senescence model in RWPE-1 cells (SA-beta-Gal and methylene blue staining). Particulars: 10 uM for 72 hours. It counts as cell-based. The procedure: FIG. 3. Activity of A1.1 and analog A1.12 in a model of dnPTEN-induced senescence in RWPE-1 normal prostate epithelial cells. A population of transduced RWPE-1 cells containing doxycycline-inducible dnPTEN was senesced via 1 ug/ml doxycycline for 7 days. Cells which bypass senescence continued to proliferate to form a confluent monolayer. The mixed population of senescent and proliferating cells was treated with A1.1 and A1.12 at 10 uM for 72 hours. SA-beta-Gal staining was used to monitor the amount of senescent cells of treatment groups compared to non-treated control. In addition, methylene blue was used to quantitate overall cell mass, which was comprised mostly of the non-senescent, proliferating cells. Treatment with the anti-senescent compounds led to a substantial decrease in SA-beta-Gal staining, while the amount of methylene blue staining was less affected.
Senescent cells are strongly associated with benign prostate hyperplasia (BPH) and the development of prostate cancer [Vital, P. et al. (2014) The Senescence-Associated Secretory Phenotype Promotes Benign Prostatic Hyperplasia. Am J Pathol, 184(3): 721-731; Burton, D. et al. (2013). Androgen Deprivation-Induced Senescence Promoted Outgrowth of Anderogen-Refractory Protstate Cancer Cells. PLOS One, 8(6):e68003]. […] We sought to evaluate the efficacy of our compounds in a model of RWPE-1 normal prostate epithelial cells transduced with a construct for inducible loss of PTEN function [doxycycline-inducible expression of a dominant-negative PTEN (dnPTEN) mutant]. In the presence of doxycycline, a fraction of the population of transduced cells became senescent, while cells bypassing senescence continued to grow until a confluent monolayer was formed.

For assay [3], the system named is adult rat dermal fibroblasts (RDF). The experiment in a line: Resazurin viability assay, senescent vs proliferating rat dermal fibroblasts. It counts as cell-based. Particulars: Rattus norvegicus, Fibroblast, 72 hour exposure, resazurin. The method, then:
as §1, §2

For assay [4], the system named is B16 melanoma lung metastasis in C57BL/6 mice. Briefly: Senescence-enhanced B16 lung metastasis model. It counts as in vivo, mouse. Particulars: 20 mg/kg intraperitoneally once a day for 5 consecutive days; irradiated (11 Gy) C57BL/6 mice. The text has this:
FIG. 4. Efficacy of A1.1 analogs in the senescence-enhanced B16 metastasis model. (A) Quantification of metastatic nodules by H&E morphometric analysis, and the resulting reduction in tumor burden (%) compared to vehicle control. (B) Quantitation morphometric analysis of lungs excised from irradiated mice treated with analogs of A1.1 post-inoculation of B16 cell intravenously, along with quantitation of morphometric analysis, are provided. (C) In vitro testing of A1.1 and analogs against the growth and viability of B16 cells, as assessed by the resazurin viability assay after 72 hour exposure to compounds compared to non-treated controls.
The role of senescent cells in the promotion of metastatic potential of cancer cells has also been described [Patent WO 2013090645 A1; Campisi, J. (2015). Cancer and Aging: Rival Demons]. […] To test the efficacy of A1.1, irradiated (11 Gy followed by bone-marrow transplantation) and non-irradiated C57BL/6 mice received B16 melanoma cells via tail vein injection were subsequently (72 hours later) administered A1.1 (20 mg/kg) intraperitoneally once a day for 5 consecutive days.
Synthesized analogs were also tested in vivo, to assess whether optimized structures are capable of showing activity against senescence-mediated B16 lung metastasis in irradiated mice (FIG. 4B). Analogs A1.1, A1.12, A1.13, A1.14, A1.15, and A1.6 were administered at 20 mg/kg intraperitoneally for 5 consecutive days. In addition to A1.1, treatment with analogs A1.12, A1.14 and A1.15 at 20 mg/kg reduced the metastatic burden in the lungs of irradiated mice by more than 2-fold.

Each structure is given as a SMILES string. Like-named read-outs stand apart in the source and are kept apart here. Bounds are passed on as bounds.

Broadly, the IC50 is the concentration that gives 50% inhibition. For `CCNC(=O)c1sc(SCc2ccccc2)c2c1CC(c1ccc(OC)cc1)C/C2=N\O` (stereo not shown) [Example A1.12], the concentration for half-maximal inhibition (IC50) was below 10 µM in assay [1] (proliferating NDF, read-out: IC50 NDFprolif); below 5 µM in assay [1] (senescent NDF, bleomycin-induced, read-out: IC50 NDFsen.bleo); below 10 µM in assay [3] (proliferating RDF, read-out: IC50 RDFprolif); below 5 µM in assay [3] (senescent RDF, bleomycin-induced, read-out: IC50 RDFsen.bleo). In assay [2], the “proliferating cells / overall cell mass (methylene blue staining)” value is recorded as “little effect against proliferating cells”. Also, the “senescent cells (number of SA-β-Gal-positive cells)” value in assay [2] (dnPTEN-induced senescence) is “selective elimination of senescent cells”.
Turning to `COc1ccc(C2C/C(=N\O)c3c(SCc4ccccc4)sc(C(=O)N4CCOCC4)c3C2)cc1` (stereo not shown) [Example A1.13, (3-(Benzylthio)-4-(hydroxyimino)-6-(4-methoxyphenyl)-4,5,6,7tetrahydrobenzo[c]thiophen-1-yl)(morpholino)methanone], the “reduction of B16 metastatic load in the lungs of irradiated mice vs vehicle” value in assay [4] is on record as “did not show a substantial decrease”.
